In PubChem BioAssay (NCI):
Several values for one entry are separate records, joined by “and”; a condition that tells them apart may be missing. Identical values can stand only once.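 Results reflect a 48-hour exposure of cells in 96-well plates to compound at five concentrations. The concentration for 50% growth inhibition is given as GI50. TGI marks complete inhibition of growth.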

Columns and labels:
Assay in all cases: DTP human tumour cell line panel, 48 h
HS 578T breast = system: HS 578T breast
UO-31 renal = system: UO-31 renal
NCI/ADR-RES ovarian = system: NCI/ADR-RES ovarian
MDA-MB-231 breast = system: MDA-MB-231 breast
IGROV1 ovarian = system: IGROV1 ovarian
KM12 colon = system: KM12 colon
T-47D breast = system: T-47D breast
SN12C renal = system: SN12C renal
SK-MEL-2 melanoma = system: SK-MEL-2 melanoma
SW-620 colon = system: SW-620 colon

SMILES	GI50 (HS 578T breast)	TGI (HS 578T breast)	GI50 (UO-31 renal)	TGI (UO-31 renal)	GI50 (NCI/ADR-RES ovarian)	TGI (NCI/ADR-RES ovarian)	GI50 (MDA-MB-231 breast)	TGI (MDA-MB-231 breast)	GI50 (IGROV1 ovarian)	TGI (IGROV1 ovarian)	GI50 (KM12 colon)	TGI (KM12 colon)	GI50 (T-47D breast)	TGI (T-47D breast)	GI50 (SN12C renal)	TGI (SN12C renal)	GI50 (SK-MEL-2 melanoma)	TGI (SK-MEL-2 melanoma)	GI50 (SW-620 colon)	TGI (SW-620 colon)
Cc1cnc(-c2ccc(-c3ccc(NC(=O)Nc4c(F)cc(F)cc4F)cc3F)c3c2C(=O)NC3)[nH]1	0.351 µM and 1.07 µM	5.19 µM and 13.5 µM	0.594 µM and 1.46 µM	> 100 µM	> 100 µM	> 100 µM	1.59 µM and 2.51 µM	8.16 µM and 11.3 µM	0.824 µM and 1.31 µM	6.63 µM and 18.8 µM	< 0.01 µM	2.58 µM and 6.87 µM	2.98 µM and 12.6 µM	20.5 µM and 47.5 µM	1.29 µM and 0.432 µM	4.57 µM and 3.41 µM	1.57 µM and 3.75 µM	14.3 µM and 21.6 µM	0.43 µM	2.19 µM
Nc1cc(N)c2nc(NCCc3ccc(Cl)c(Cl)c3)cnc2c1	23.5 µM	56.9 µM	6.3 µM	20.3 µM	20.5 µM	39.7 µM	4.72 µM	16.5 µM	14.5 µM	28.7 µM	13 µM	30.4 µM	2.83 µM	8.65 µM	11.7 µM	23.9 µM	8.23 µM	21.4 µM	16.2 µM	32 µM
CC(=O)Nc1cc2c3c(cccc3c1)-c1ccccc1-2	29.3 µM	94.6 µM	0.356 µM	15.3 µM	26.1 µM	> 100 µM	10.6 µM	25.8 µM	24.2 µM	> 100 µM	32.7 µM	> 100 µM	37.3 µM	> 100 µM	0.72 µM	> 100 µM	70 µM	> 100 µM	95.6 µM	> 100 µM
COc1ccc(/C=C\c2cc(OC)c(OC)c(OC)c2)c(NS(=O)(=O)c2ccc(F)cc2)c1O	0.113 µM	> 100 µM	0.333 µM	> 82.9 µM	0.179 µM	3.4 µM	0.0977 µM	70.9 µM	0.212 µM	> 100 µM	0.0556 µM	> 100 µM	38.5 µM	> 100 µM	0.18 µM	> 100 µM	0.184 µM	> 100 µM	0.0434 µM	> 100 µM
Cn1c(=O)c(Oc2ccc(F)cc2F)cc2cnc(NCC(C)(C)O)nc21	> 25 µM	> 25 µM	> 25 µM	> 25 µM	> 25 µM	> 25 µM	> 25 µM	> 25 µM	> 25 µM	> 25 µM	> 25 µM	> 25 µM	> 25 µM	> 25 µM	> 25 µM	> 25 µM	> 25 µM	> 25 µM	> 25 µM	> 25 µM
Cc1[nH]nc(C(=O)N/N=C/c2ccccc2Cl)c1N=NN(C)C		> 61.9 µM		> 100 µM		> 27.7 µM		> 100 µM		> 100 µM		> 100 µM		> 100 µM		> 100 µM		> 100 µM		> 100 µM
CCCCCCCCCC[C@H](O)[C@H]1CC[C@@H]([C@@H](O)CC[C@H](O)[C@@H]2CCC(CCCCCCC[C@@H](O)CC3=C[C@H](C)OC3=O)O2)O1 (stereo partly specified)		4.86 µM	2.59 µM	2.13 µM and 10.9 µM	2.63 µM	4.08 µM and 19.6 µM		7.03 µM and 44.2 µM	5.17 µM	4.99 µM and 21.1 µM	4.25 µM		1.87 µM	17.6 µM	8.18 µM	8.23 µM and 30.6 µM	8.82 µM	2.94 µM and 24.6 µM	4.8 µM	
COc1cc(C2CC(c3cccc(Nc4ccnc5cc(Cl)ccc45)c3)=NN2c2ccccc2)cc(OC)c1OC (stereo unspecified)	9.22 µM	> 100 µM	1.68 µM	> 100 µM	5.97 µM	> 100 µM	4.77 µM	> 100 µM	29.2 µM	> 100 µM	2 µM	> 100 µM	1.44 µM	> 100 µM	> 100 µM	> 100 µM	8.78 µM	75.6 µM	2.44 µM	> 100 µM
Cc1c(Cl)c(C)c(Cl)c(O)c1Cl		61.2 µM		42.6 µM		72.6 µM		> 100 µM		> 100 µM		> 100 µM		> 100 µM		> 100 µM		30.3 µM		> 100 µM
Cc1cc(C)c2c(c1)N(C)c1ncnc(-n3cnc4cc(C)ccc43)c1CC2C (stereo unspecified)	3 µM	31 µM	2.5 µM	16.2 µM	3.05 µM	19.5 µM	3.03 µM	14.6 µM	5.46 µM	> 100 µM	3.67 µM	26 µM	4.17 µM	24.9 µM	4.37 µM	19.7 µM	4.21 µM	26.6 µM	4.1 µM	64.1 µM
O=C(/C=C/C=C/c1ccc2c(c1)OCO2)N/N=C\c1ccc(O)cc1O	2.29 µM	8.15 µM	1.47 µM	8.75 µM	1.29 µM	7.6 µM	3.49 µM	19.3 µM	2.23 µM	14.3 µM	2.92 µM	20.6 µM	2.55 µM	24 µM	2.98 µM	16.2 µM	5.51 µM	27 µM	2.83 µM	19.9 µM
C=CC(=O)N1CCC[C@@H](n2nc(-c3ccc(Oc4ccccc4)cc3)c3c(N)ncnc32)C1	> 10 µM	> 10 µM	1.1 µM	> 10 µM	> 6.08 µM	> 10 µM	9.69 µM	> 10 µM	0.418 µM	> 10 µM	> 8.92 µM	> 10 µM	0.0945 µM	> 10 µM	> 4.69 µM	> 10 µM	> 10 µM	> 10 µM	> 10 µM	> 10 µM
Nc1n[nH]c2ccc([C@@H]3Nc4ccc5cn[nH]c5c4[C@H]4C5CCC(C5)[C@@H]34)cc12 (stereo partly specified)	0.389 µM	> 100 µM	1 µM	> 100 µM	0.887 µM	> 24.1 µM	0.874 µM	> 53.4 µM	0.579 µM	62.2 µM	0.47 µM	28 µM	0.402 µM	> 100 µM	0.747 µM	> 100 µM	0.621 µM	> 100 µM	0.401 µM	> 100 µM
CC(C)C1=CC2=C(C(=O)C1=O)C13CCCC(C)(C)C1CC2OC3=O (stereo unspecified)		> 100 µM		40.8 µM		40.1 µM		42.6 µM		32.2 µM		> 100 µM		48.4 µM		43.6 µM		47.4 µM		35.2 µM
COc1cc(C)[nH]c(=O)c1CNC(=O)c1c(C)n([C@H](C)C2CCN(CC(F)(F)F)CC2)c2ccccc12	95.3 µM	> 100 µM	28.2 µM	> 100 µM	77.2 µM	> 100 µM	51 µM	> 100 µM	49.2 µM	> 100 µM	41.6 µM	> 100 µM	25.9 µM	> 100 µM	43 µM	> 100 µM	47.3 µM	> 100 µM	65.3 µM	> 100 µM
O=C(O)c1ccc(/C=N/N=C2c3ccccc3-c3ccccc32)cc1		53.1 µM		> 100 µM		> 100 µM		> 100 µM		> 100 µM		> 100 µM		> 100 µM		> 100 µM		75.1 µM		> 100 µM
